Measurements published in patent US4382925A.
In brackets after ≈: the same amount, converted by molar mass. Entries after “also recorded” stand apart in the source; their conditions may differ. Where two headings read alike, the source gives them in different places.

Columns and labels:
cell culture [1] = settings: prior art literature; cited from earlier work
[2] = tested on: Herpes simplex-1 strain McIntyre; assay: Inhibition of cytopathic effect of herpes simplex-1 virus strain McIntyre in PRK cell cultures (Test 1); format: cell-based; settings: PRK cells, average of three experiments, read-out: ID50, Herpes simplex-1 strain McIntyre (PRK)
[3] = tested on: herpes simplex-1 (strain KOS) virus; settings: separate experiments, De Clercq et al., PNAS 1979; cited from earlier work
[4] = tested on: Herpes simplex-1 strain F; assay: Inhibition of cytopathic effect of herpes simplex-1 virus strain F in PRK cell cultures (Test 1); format: cell-based; settings: PRK cells, average of three experiments, read-out: ID50, Herpes simplex-1 strain F (PRK)
[5] = tested on: Herpes simplex-1 strain KOS; assay: Inhibition of cytopathic effect of herpes simplex-1 virus strain KOS in PRK and HSF cell cultures (Test 1); format: cell-based; settings: average of three experiments
[6] = tested on: (Methyl-^3 H)TdR incorporation into cell DNA, PRK cell cultures; settings: separate experiments reported by De Clercq et al., PNAS 76, 2947-2951 (1979); cited from earlier work
[7] = tested on: herpes simplex-1 (strain KOS) virus; settings: dose 10 μl/ml [sic]
[8] = tested on: (2-^14 C)UdR incorporation into cell DNA, PRK cell cultures; settings: separate experiments reported by De Clercq et al., PNAS 76, 2947-2951 (1979); cited from earlier work
vaccinia virus = assay: microbe, parasite or virus in culture; format: cell-based; settings: Orthopoxvirus vaccinia
[9] = Antimetabolic activity in PRK cell cultures: (2-^14 C)UdR incorporation into cell DNA (Test 3); format: cell-based; settings: rabbit, PRK cells, read-out: ID50, (2-^14 C)UdR incorporation into cell DNA
Description: (§1) To this end, the incorporation of certain radiolabelled DNA precursors into DNA of the cells, and the effect of 5-(2-halogenovinyl)-2'-deoxycytidines and related compounds thereon, was tested. The technique has been described by De Clercq et al in Biochemical Pharmacology, 26, 794-797 (1977) and by De Clercq et al in Molecular Pharmacology, 14, 422-430, (1978).
(§2) The DNA precursors as used were (methyl-^3 H), (2'-deoxythymidine ) (TdR), and (2-^14 C) (2'-deoxyuridine) (UdR).
(§3) The cells were exposed to 0.12 μCi:0.01 nmol (methyl-^3 H)TdR (per 10^5 cells) or 14 μCi/250 nmol (2-^14 C) UdR (per 10^5 cells) for 16 hours in the presence of varying concentrations of the compounds (ranging from 1 to 200 μg/ml). Incorporation of the radiolabelled precursor was then measured as described and the ID50 was determined. ID50 corresponds to the inhibitory dose-50, that is the concentration of compound required to inhibit incorporation of either (methyl-^3 H)TdR or (2-^14 C)UdR by 50%.

cell culture [10] = assay: Toxicity in cell culture, overall statements; format: cell-based; settings: in words
Description: as §3

[11] = Antimetabolic activity in PRK cell cultures: (methyl-^3 H)TdR incorporation into cell DNA (Test 3); format: cell-based; settings: rabbit, PRK cells, read-out: ID50, (Methyl-^3 H)TdR incorporation into cell DNA
Description: as §1, §2, §3

herpes simplex virus [12] = assay: Antiviral activity against herpes simplex virus in cell culture, overall statements; format: cell-based; settings: in words
herpes simplex virus [13] = settings: De Clercq et al., PNAS 76, 2947-2951 (1979); cited from earlier work
[14] = tested on: herpes simplex-1 (strain KOS) virus; assay: Antiviral index in PRK cell cultures (Test 4); format: cell-based, herpes simplex-1 virus; settings: ratio of ID50 for (2-^14 C)UdR incorporation to ID50 for herpes simplex-1 (strain KOS), PRK cells
Description: The antiviral index was determined as the ratio of ID50 for (2-^14 C)UdR incorporation into cell DNA to ID50 for herpes simplex-1 (strain KOS) virus replication (compare Tables 1 and 3).

[15] = HSF cells, read-out: ID50, Herpes simplex-1 strain KOS (HSF)
[16] = PRK cells, read-out: ID50, Herpes simplex-1 strain KOS (PRK)
[17] = HSF, read-out: ID50, Vaccinia (HSF)
[18] = PRK, read-out: ID50, Vaccinia (PRK)

Compound | toxicity in cell culture, reported (cell culture [1]) | IC50 [2] | Antiviral index (numbers in parentheses) [3] | IC50 [4] | IC50 [5, 15] | IC50 [5, 16] | ID50, (Methyl-^3 H)TdR incorporation into cell DNA (data in parentheses) [6] | Reduction in virus yield as compared to control (untreated virus-infected) cell cultures ([7]; 1 day after infection) | Reduction in virus yield as compared to control (untreated virus-infected) cell cultures ([7]; 2 days after infection) | Reduction in virus yield as compared to control (untreated virus-infected) cell cultures ([7]; 3 days after infection) | ID50, (2-^14 C)UdR incorporation into cell DNA (data in parentheses) [8] | IC50 (vaccinia virus; [17]) | IC50 (vaccinia virus; [18]) | IC50 at 16 h [9] | toxicity in cell culture (cell culture [10]) | IC50 at 16 h [11] | specific antiviral activity against herpes simplex virus (herpes simplex virus [12]) | antiviral activity against herpes simplex virus, reported (herpes simplex virus [13]) | Antiviral index [14]
O=c1[nH]c(=O)n([C@H]2C[C@H](O)[C@@H](CO)O2)cc1I [5-iodo-2'-deoxyuridine] | cannot be neglected | 0.15 µg/mL (≈ 0.424 µM) | 12 | 0.2 µg/mL (≈ 0.565 µM) | 0.2 µg/mL (≈ 0.565 µM) | 0.1 µg/mL (≈ 0.282 µM) | 2.5 µg/mL (≈ 7.06 µM) | 4.0 log10 PFU/ml | 2.6 log10 PFU/ml | 1.9 log10 PFU/ml | 1.2 µg/mL (≈ 3.39 µM) | 0.2 µg/mL (≈ 0.565 µM) | 0.02 µg/mL (≈ 0.0565 µM) |  |  |  |  |  | 
Nc1nc(=O)n([C@H]2C[C@H](O)[C@@H](CO)O2)cc1/C=C/Br [E-5-(2-bromovinyl)-2'-deoxycytidine] |  | 0.07 µg/mL (≈ 0.211 µM) |  | 0.1 µg/mL (≈ 0.301 µM) | 0.07 µg/mL (≈ 0.211 µM) | 0.07 µg/mL (≈ 0.211 µM) |  | 3.8 log10 PFU/ml | 2.9 log10 PFU/ml | 2.2 log10 PFU/ml |  | 2 µg/mL (≈ 6.02 µM) | 10 µg/mL (≈ 30.1 µM) | > 200 µg/mL | apparently nil; also recorded: apparent lack of toxicity in cell culture | > 200 µg/mL | excellent and highly specific antiviral activity against herpes simplex virus; also recorded: very specific towards herpes simplex virus |  | 
O=c1[nH]c(=O)n([C@H]2C[C@H](O)[C@@H](CO)O2)cc1/C=C/Br [E-5-(2-bromovinyl)-2'-deoxyuridine] | low toxicity in cell culture | 0.01 µg/mL (≈ 0.03 µM) | 10000 | 0.01 µg/mL (≈ 0.03 µM) | 0.01 µg/mL (≈ 0.03 µM) | 0.007 µg/mL (≈ 0.021 µM) | 70 µg/mL (≈ 210 µM) |  |  |  | 70 µg/mL (≈ 210 µM) | 0.7 µg/mL (≈ 2.1 µM) | 7 µg/mL (≈ 21 µM) | 100 µg/mL (≈ 300 µM) |  | 100 µg/mL (≈ 300 µM) |  | specific antiviral activity against herpes simplex virus | 14300
Nc1nc(=O)n([C@H]2C[C@H](O)[C@@H](CO)O2)cc1/C=C/I [E-5-(2-iodovinyl)-2'-deoxycytidine] |  | 0.07 µg/mL (≈ 0.185 µM) |  | 0.2 µg/mL (≈ 0.527 µM) | 0.07 µg/mL (≈ 0.185 µM) | 0.1 µg/mL (≈ 0.264 µM) |  | 4.3 log10 PFU/ml | 2.8 log10 PFU/ml | 2.0 log10 PFU/ml |  | 7 µg/mL (≈ 18.5 µM) | 10 µg/mL (≈ 26.4 µM) | > 200 µg/mL | apparently nil; also recorded: apparent lack of toxicity in cell culture | > 200 µg/mL | excellent and highly specific antiviral activity against herpes simplex virus; also recorded: very specific towards herpes simplex virus |  | 
O=c1[nH]c(=O)n([C@H]2C[C@H](O)[C@@H](CO)O2)cc1/C=C/I [E-5-(2-iodovinyl)-2'-deoxyuridine] | low toxicity in cell culture | 0.01 µg/mL (≈ 0.0263 µM) | 7000 | 0.01 µg/mL (≈ 0.0263 µM) | 0.02 µg/mL (≈ 0.0526 µM) | 0.01 µg/mL (≈ 0.0263 µM) | 70 µg/mL (≈ 184 µM) |  |  |  | 70 µg/mL (≈ 184 µM) | 1 µg/mL (≈ 2.63 µM) | 10 µg/mL (≈ 26.3 µM) | 150 µg/mL (≈ 395 µM) |  | 80 µg/mL (≈ 210 µM) |  | specific antiviral activity against herpes simplex virus | 15000
